Calls of active or inactive are those of the source.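 The calls were made as follows: active = IC50 at or below 10 µM; inactive = IC50 above 10 µM.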
The compounds below were run against Orexin/Hypocretin receptor type 1 (Homo sapiens) (UniProt O43613) (assay: HCRTR1 antagonism, orexin A-evoked calcium – fluorescence, Fluo-8, CHO cells, powder samples, late-stage follow-up (AID 624409)). Settings: CHO/OX1R cells, Fluo-8 calcium fluorescence.
Sequence of Orexin/Hypocretin receptor type 1 (Homo sapiens) (O43613 whole entry, looked up): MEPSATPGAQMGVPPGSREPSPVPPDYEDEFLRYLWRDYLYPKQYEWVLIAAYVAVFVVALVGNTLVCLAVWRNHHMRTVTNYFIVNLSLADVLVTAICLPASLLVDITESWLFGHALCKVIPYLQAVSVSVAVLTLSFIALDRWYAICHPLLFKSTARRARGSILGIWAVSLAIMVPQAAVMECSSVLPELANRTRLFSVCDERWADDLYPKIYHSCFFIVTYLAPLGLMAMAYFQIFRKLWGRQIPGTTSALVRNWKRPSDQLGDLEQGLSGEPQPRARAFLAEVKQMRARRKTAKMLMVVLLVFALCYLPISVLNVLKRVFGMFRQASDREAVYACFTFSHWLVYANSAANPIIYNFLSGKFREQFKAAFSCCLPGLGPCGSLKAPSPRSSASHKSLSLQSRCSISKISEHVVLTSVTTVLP
In the case of `CSc1cccc(NC(=O)C2CCCN2S(=O)(=O)c2ccc(Br)s2)c1` (stereo unspecified), the IC50 is reported as 4.67 µM. For `CN(N=Cc1cc([N+](=O)[O-])ccc1O)c1ccccc1`, the IC50 was > 59.6 µM (inactive). For `O=C(CSc1ccc(-c2ccccc2)nn1)c1cccs1`, the IC50 was 7.92 µM. `CCOc1ccccc1C(=O)Nc1ccc2nc3n(c(=O)c2c1)CCCCC3` was tested, and the IC50 was “inactive”. In the case of `CCc1cc(C(=O)OCC(=O)N2CCC(c3ccccc3)=N2)sc1C`, the IC50 is reported as “inactive”. `COc1cc(OC)c(-c2nc3ccccc3s2)cc1OC` was tested, and the IC50 was “inactive”. `COc1cccc(/C=C2/Oc3ccccc3N(CC(=O)NCC3CCCO3)C2=O)c1` (stereo unspecified) was tested, and the IC50 was 3.8 µM. In the case of `CCOC(=O)N1CCN(C(=O)CSc2ccc(-c3ccccc3)nn2)CC1`, the IC50 is reported as > 59.6 µM (inactive). For `Cc1ccccc1NC(=O)C1CCCN1S(=O)(=O)c1ccccc1C(F)(F)F` (stereo unspecified), the IC50 was > 19.9 µM (inactive). In the case of `CC(=C/c1ccccc1)/C=C1/SC(N2CCOCC2)=NC1=O`, the IC50 is reported as 9.14 µM. `O=c1cc(CN2CC(O)Cc3ccc4ccccc4c32)nc2sccn12` (stereo unspecified) was tested, and the IC50 was > 19.9 µM (inactive). For `CCN(CC)c1ccc(NC(=O)Cn2c(C(C)NC(=O)c3ccccc3)nc3ccccc32)cc1` (stereo unspecified), the IC50 was > 59.6 µM (inactive). In the case of `O=C(CN1C(=O)/C(=C\c2cccc(Br)c2)Oc2ccccc21)NCC1CCCO1` (stereo unspecified), the IC50 is reported as 5.01 µM. `Cc1cc(Cl)ccc1OCCCC(=O)NCCN1C(=O)S/C(=C\c2cccnc2)C1=O` gave an IC50 of 1.38 µM. In the case of `COc1ccc(OC)c(S(=O)(=O)NCC(c2ccco2)N2CCc3ccccc32)c1` (stereo unspecified), the IC50 is reported as 7.12 µM. With `Fc1cccc(Nc2nc3ccccc3n3cnnc23)c1` the IC50 was > 59.6 µM (inactive). `CCSC1=C(C#N)C(c2ccccc2Cl)C(C(=O)c2cccs2)C(O)(C(F)(F)F)N1` (stereo unspecified) showed an IC50 of 4.97 µM. `Cc1cccc(C=NNC(=O)c2cc3c(s2)-c2ccccc2CC3)c1` was tested, and the IC50 was 2.67 µM. With `Cc1noc(C)c1COc1ccc(C(=O)OCC(=O)N2CC(=O)Nc3ccccc32)cc1` the IC50 was > 19.9 µM (inactive). With `CCn1c(SCC(=O)Nc2ccc3c(c2)c2ccccc2n3CC)nnc1-c1cnccn1` the IC50 was “inactive”. For `Cc1c(NS(=O)(=O)c2cccc(C(=O)OCC(=O)N(C)C3CCCCC3)c2)c(=O)n(-c2ccccc2)n1C`, the IC50 was “inactive”. `CSc1cccc(N2CC(C(=O)NCCN3C(=O)S/C(=C\c4cccnc4)C3=O)CC2=O)c1` (stereo unspecified) was tested, and the IC50 was > 19.9 µM (inactive). In the case of `COCCCNC(=O)CCC(=O)NNc1nc2ccccc2c2nc(-c3ccccc3)nn12`, the IC50 is reported as “inactive”. For `Cc1cccc(NC(=O)[C@@H]2CCCN2S(=O)(=O)c2ccc(Cl)cc2)c1`, the IC50 was > 19.9 µM (inactive). For `Cc1ccc(-c2csc3nnc(SCC(=O)Nc4nsc(-c5ccccc5)n4)n23)cc1`, the IC50 was “inactive”. In the case of `CCc1cc2c(SCC(=O)N(CC)c3c(N)n(Cc4ccccc4)c(=O)[nH]c3=O)ncnc2s1`, the IC50 is reported as > 59.6 µM (inactive).

— PubChem BioAssay AID624409 (The Scripps Research Institute Molecular Screening Center, 2012)
